In patent publication US4067996A, “Phenylacetic acid derivatives” (Synthelabo, priority 1974, dated 1978):
Like-named read-outs stand apart in the source and are kept apart here.

Tests used:
[1] = Acute toxicity in mice on oral administration; assay type: in vivo; conditions: mouse, in vivo, read-out: LD 50 (acute toxicity)
Procedure: (§1) The acute toxicity was studied by oral administration to CDl mice of both sexes. The 50% lethal doses (LD 50) were determined graphically.
(§2) In a second series of experiments, the experimental technique was modified slightly: the compounds studied are dispersed in olive oil instead of being dissolved in water.

[2] = tested on: cholesterol in the serum; experiment: Hypocholesterolaemic action in rats on oral administration (7 days); assay type: in vivo, male albino rats of the CDl race (Charles River); conditions: daily for 7 days
Procedure: (§3) The reference substances chosen were clofibrate or ethyl 2-p-chlorophenoxy-2-methyl-propionate, and halofenate or 2-acetamido-ethyl2-p-chlorophenyl-2-m-trifluoromethylphenoxy-acetate.
(§4) The hypocholesterolaemic action was determined on male albino rats of the CDl race (Charles River) weighing on average 250 g and fed normally, the rats being divided into batches each of 10 animals. Daily doses of one of the compounds studied were administered orally for 7 days. On the 8th day, the contents of cholesterol and triglycerides in the blood were determined and compared with those of animals of the untreated comparison group. In this way it was possible graphically to evaluate, for each compound, the 30% active dose (AD 30), that is to say the daily dose which causes a 30% reduction in the content of cholesterol or of triglycerides in the serum.
(§5) *AD 30 = daily dose which causes a 30% reduction in the content of
as §2

[3] = tested on: triglycerides in the serum; experiment: Hypolipaemic activity (triglycerides) in rats on oral administration (7 days); assay type: in vivo, male albino rats of the CDl race (Charles River); conditions: daily for 7 days
Procedure: as §3, §4, §5, §2

[4] = tested on: CDl mice; experiment: Acute toxicity in mice on oral administration; assay type: in vivo; conditions: Table III, second series, dispersed in olive oil
Procedure: as §1, §2

[5] = tested on: content of lipids (triglycerides and cholesterol) in the blood; experiment: Hypolipaemic and hypocholesterolaemic effect compared with reference substances (summary); assay type: in vivo, rats
Procedure: as §3, §4, §2

[6] = Table III, second series, dispersed in olive oil
[7] = Table II, first series (dissolved in water)

| SMILES | LD50 [1, 6] | AD 30, cholesterol (daily dose which causes a 30% reduction in serum cholesterol) [2, 6] | AD 30, triglycerides (daily dose which causes a 30% reduction in serum triglycerides) [3, 6] | LD50 ([1]; Table II, first series) | LD 50 (acute toxicity) [4] | AD 30, cholesterol (daily dose which causes a 30% reduction in serum cholesterol) [2, 7] | AD 30, triglycerides (daily dose which causes a 30% reduction in serum triglycerides) [3, 7] | times more active than clofibrate ([5]; relative to clofibrate) | times more active than halofenate ([5]; relative to halofenate) |
| --- | --- | --- | --- | --- | --- | --- | --- | --- | --- |
| CN(C)C(=O)CCCOC(=O)C(Oc1ccc(F)c(C(F)(F)F)c1)c1ccc(Cl)cc1 (centres unmarked) [SL-D.126, N,N-Dimethyl-3-aminocarbonyl-propyl 2-(4-fluoro-3-trifluoromethyl-phenoxy)-2-(4-chloro-phenyl)-acetate] | > 2000 mg/kg | 70 mg/kg | 20 mg/kg |  |  |  |  |  |  |
| CC(=O)NCCOC(=O)C(Oc1ccc(F)c(C(F)(F)F)c1)c1ccc(Cl)cc1 (centres unmarked) [SL C 149, 2-Acetylamino-ethyl 2-(4-chloro-phenyl)-2-(4-fluoro-3-trifluoromethyl-phenoxy)-acetate] |  | 30 mg/kg | 20 mg/kg | 2000 mg/kg | 2,000 mg/kg | 17 mg/kg | 12 mg/kg | about 15 times | four |
| O=C(O)C(Oc1ccc(F)c(C(F)(F)F)c1)c1ccc(Cl)cc1 (centres unmarked) [SL C 151, 2-(4-Chloro-phenyl)-2-(4-fluoro-3-trifluoromethyl-phenoxy)-acetic acid] |  |  |  | 2000 mg/kg |  | 50 mg/kg | 12 mg/kg |  |  |
| CCOC(=O)C(C)(C)Oc1ccc(Cl)cc1 [Clofibrate, ethyl 2-p-chlorophenoxy-2-methyl-propionate, reference compound] |  |  |  | 1300 mg/kg |  | 160 mg/kg | 200 mg/kg |  |  |
| CC1CC(OC(=O)C(Oc2ccc(F)c(C(F)(F)F)c2)c2ccc(Cl)cc2)CC(C)(C)C1 (centres unmarked) [SL-D.128, 3,3,5-Trimethyl-cyclohexyl-1 2-(4-fluoro-3-trifluoromethyl-phenoxy)-2-(4-chloro-phenyl)-acetate] | > 2000 mg/kg | 80 mg/kg | 10 mg/kg |  |  |  |  |  |  |
| CC(=O)NCCOC(=O)C(Oc1ccc(F)c(C(F)(F)F)c1)c1ccc(F)cc1 (centres unmarked) [SL D 097, 2-acetylamino-ethyl 2-(4-fluoro-3-trifluoromethyl-phenoxy)-2-(4-fluoro-phenyl)acetate] |  |  |  | > 2000 mg/kg |  | > 100 mg/kg | 25 mg/kg |  |  |
| CCOC(=O)C(Oc1ccc(F)c(C(F)(F)F)c1)c1ccc(Cl)cc1 (centres unmarked) [SL C 150, Ethyl 2-(4-chloro-phenyl)-2-(4-fluoro-3-trifluoromethyl-phenoxy)-acetate] |  |  |  | > 2500 mg/kg |  | 20 mg/kg | 25 mg/kg |  |  |
| NC(=O)C(Oc1ccc(F)c(C(F)(F)F)c1)c1ccc(Cl)cc1 (centres unmarked) [SL D 063] |  |  |  | > 2000 mg/kg |  | > 100 mg/kg | 20 mg/kg |  |  |
| CN1CCC(OC(=O)C(Oc2ccc(F)c(C(F)(F)F)c2)c2ccc(Cl)cc2)CC1 (centres unmarked) [SL-D.123, 1-Methyl-piperidinyl-4 2-(4-fluoro-3-trifluoromethyl-phenoxy)-2-(4-chloro-phenyl)-acetate] | > 2000 mg/kg | 50 mg/kg | 20 mg/kg |  |  |  |  |  |  |
| CC(=O)NCCOC(=O)C(Oc1cccc(C(F)(F)F)c1)c1ccc(Cl)cc1 (centres unmarked) [Halofenate, 2-acetamido-ethyl2-p-chlorophenyl-2-m-trifluoromethylphenoxy-acetate, reference compound] |  |  |  | 1800 mg/kg |  | 70 mg/kg | 50 mg/kg |  |  |
| O=C(NCCO)C(Oc1ccc(F)c(C(F)(F)F)c1)c1ccc(Cl)cc1 (centres unmarked) [SL D 064, 2-(4-Fluoro-3-trifluoromethyl-phenoxy)-2-(4-chloro-phenyl)-N-(2-hydroxy-ethyl)-acetamide] |  |  |  | > 2000 mg/kg |  | > 100 mg/kg | 20 mg/kg |  |  |
| O=C(OCc1cccnc1)C(Oc1ccc(F)c(C(F)(F)F)c1)c1ccc(Cl)cc1 (centres unmarked) [SL D 065] |  |  |  | > 2000 mg/kg |  | 55 mg/kg | 35 mg/kg |  |  |
